# Laboratory results reported in patent publication US20030004172A1, “Fused pyrimidinone matrix metalloproteinase inhibitors” (priority 2001, published 2003).
# Target: MMP-13CD (catalytic domain of collagenase-3) (Homo sapiens, UniProt P45452)
# Assay: Thiopeptolide substrate hydrolysis inhibition assay, MMP-13CD
# Assay type: biochemical
# Conditions: Table I; thiopeptolide substrate, HEPES pH 7.0, 22° C.; read-out: MMP-13CD IC50
# Description: Thiopeptolide substrates show virtually no decomposition or hydrolysis at or below neutral pH in the absence of a matrix metalloproteinase enzyme.
row,Compound,IC50 [nM]
1,"Cn1c(=O)n(Cc2ccc(C(=O)O)cc2)c(=O)c2cc(C(=O)NCc3cccc(OC(F)F)c3)sc21 [Example 77, 4-[6-(3-Difluoromethoxy-benzylcarbamoyl)-1-methyl-2,4-dioxo-1,4-dihydro-2H-thieno[2,3-d]pyrimidin-3-ylmethyl]-benzoic acid]",6.55
2,"Cn1c(=O)n(Cc2ccc(C(=O)OC(C)(C)C)cc2)c(=O)c2cc(C(=O)NCc3cccc(OC(F)F)c3)sc21 [Example 78, 4-[6-(3-Difluoromethoxy-benzylcarbamoyl)-1-methyl-2,4-dioxo-1,4-dihydro-2H-thieno[2,3-d]pyrimidin-3-ylmethyl]-benzoic acid tert-butyl ester]",900
3,"COc1cccc(CNC(=O)c2cc3c(=O)n(Cc4ccc(C(=O)O)cc4)c(=O)n(C)c3s2)c1 [Example 79, 4-[6-(3-Methoxy-benzylcarbamoyl)-1-methyl-2,4-dioxo-1,4-dihydro-2H-thieno[2,3-d]pyrimidin-3-ylmethyl]-benzoic acid]",2.05
4,"Cn1c(=O)n(Cc2ccc(C(=O)OC(C)(C)C)cc2)c(=O)c2cc(C(=O)NCc3ccc(S(C)(=O)=O)cc3)sc21 [Example 80, 4-[6-(4-Methanesulfonyl-benzylcarbamoyl)-1-methyl-2,4-dioxo-1,4-dihydro-2H-thieno[2,3-d]pyrimidin-3-ylmethyl]-benzoic acid tert-butyl ester]",25000
5,"Cn1c(=O)n(Cc2ccc(C(=O)O)cc2)c(=O)c2cc(C(=O)NCc3ccc(S(C)(=O)=O)cc3)sc21 [Example 81, 4-[6-(4-Methanesulfonyl-benzylcarbamoyl)-1-methyl-2,4-dioxo-1,4-dihydro-2H-thieno[2,3-d]pyrimidin-3-ylmethyl]-benzoic acid]",3900
6,"Cn1c(=O)n(Cc2ccc(C(=O)O)cc2)c(=O)c2cc(C(=O)NCCc3ccncc3)sc21 [Example 82, 4-[1-Methyl-2,4-dioxo-6-(2-pyridin-4-yl-ethylcarbamoyl)-1,4-dihydro-2H-thieno[2,3-d]pyrimidin-3-ylmethyl]-benzoic acid]",3700
7,"COc1cccc(CNC(=O)c2cc3c(=O)n(Cc4ccc(OC(F)(F)F)cc4)c(=O)n(C)c3s2)c1 [Example 83, 1-Methyl-2,4-dioxo-3-(4-trifluoromethoxy-benzyl)-1,2,3,4-tetrahydro-thieno[2,3-d]pyrimidine-6-carboxylic acid 3-methoxy-benzylamide]",140
8,"COC(=O)c1ccc(Cn2c(=O)c3cc(C(=O)NCc4cccc(OC)c4)sc3n(C)c2=O)cc1 [Example 84, 4-[6-(3-Methoxy-benzylcarbamoyl)-1-methyl-2,4-dioxo-1,4-dihydro-2H-thieno[2,3-d]pyrimidin-3-ylmethyl]-benzoic acid methyl ester]",20.5
9,"COc1cccc(CNC(=O)c2cc3c(=O)n(Cc4ccc5c(c4)OCC5)c(=O)n(C)c3s2)c1 [Example 85, 3-(2,3-Dihydro-benzofuran-6-ylmethyl)-1-methyl-2,4-dioxo-1,2,3,4-tetrahydro-thieno[2,3-d]pyrimidine-6-carboxylic acid 3-methoxy-benzylamide]",47.5
10,"COc1cccc(CNC(=O)c2cc3c(=O)n(Cc4cnc(C)s4)c(=O)n(C)c3s2)c1 [Example 86, 1-Methyl-3-(2-methyl-thiazol-5-ylmethyl)-2,4-dioxo-1,2,3,4-tetrahydro-thieno[2,3-d]pyrimidine-6-carboxylic acid 3-methoxy-benzylamide]",1400
11,"Cn1c(=O)n(Cc2ccc(-c3nnn[nH]3)cc2)c(=O)c2cc(C(=O)NCc3ccc(F)cc3)sc21 [Example 87, 1-Methyl-2,4-dioxo-3-[4-(1H-tetrazol-5-yl)-benzyl]-1,2,3,4-tetrahydro-thieno[2,3-d]pyrimidine-6-carboxylic acid 4-fluoro-benzylamide]",18.5
12,"COc1nc2sc(C(=O)OCc3ccccc3)cc2c(=O)n1Cc1ccccc1 [Example 88, 3-Benzyl-2-methoxy-4-oxo-3,4-dihydro-thieno[2,3-d]pyrimidine-6-carboxylic acid benzyl ester]",3150
13,"COc1cccc(CNC(=O)c2cc3c(=O)n(Cc4ccc(C(=O)OCOC(=O)C(C)(C)C)cc4)c(=O)n(C)c3s2)c1 [Example 89, 4-[6-(3-Methoxy-benzylcarbamoyl)-1-methyl-2,4-dioxo-1,4-dihydro-2H-thieno[2,3-d]pyrimidin-3-ylmethyl]-benzoic acid 2,2-dimethyl-propionyloxymethyl ester]",113
14,"COc1cccc(CNC(=O)c2cc3c(=O)n(CC4CCC(C(=O)O)CC4)c(=O)n(C)c3s2)c1 (stereo not drawn) [Example 90, 4-[6-(3-Methoxy-benzylcarbamoyl)-1-methyl-2,4-dioxo-1,4-dihydro-2H-thieno[2,3-d]pyrimidin-3-ylmethyl]-cyclohexanecarboxylic acid]",5.43
15,"COC(=O)C1CCC(Cn2c(=O)c3cc(C(=O)NCc4cccc(OC)c4)sc3n(C)c2=O)CC1 (stereo not drawn) [Example 91, 4-[6-(3-Methoxy-benzylcarbamoyl)-1-methyl-2,4-dioxo-1,4-dihydro-2H-thieno[2,3-d]pyrimidin-3-ylmethyl]-cyclohexanecarboxylic acid methyl ester]",49.6
16,"COC(=O)C1(c2ccc(Cn3c(=O)c4cc(C(=O)NCc5cccc(OC)c5)sc4n(C)c3=O)cc2)CC1 [Example 92, 1-{4-[6-(3-Methoxy-benzylcarbamoyl)-1-methyl-2,4-dioxo-1,4-dihydro-2H-thieno[2,3-d]pyrimidin-3-ylmethyl]-phenyl}-cyclopropanecarboxylic acid methyl ester]",10.9
17,"COc1cccc(CNC(=O)c2cc3c(=O)n(Cc4ccc(C5(C(=O)OC(C)(C)C)CC5)cc4)c(=O)n(C)c3s2)c1 [Example 93, 1-{4-[6-(3-Methoxy-benzylcarbamoyl)-1-methyl-2,4-dioxo-1,4-dihydro-2H-thieno[2,3-d]pyrimidin-3-ylmethyl]-phenyl}-cyclopropanecarboxylic acid tert-butyl ester]",111
18,"COc1cccc(CNC(=O)c2cc3c(=O)n(Cc4ccc(C5(C(=O)O)CC5)cc4)c(=O)n(C)c3s2)c1 [Example 94, 1-{4-[6-(3-Methoxy-benzylcarbamoyl)-1-methyl-2,4-dioxo-1,4-dihydro-2H-thieno[2,3-d]pyrimidin-3-ylmethyl]-phenyl}-cyclopropanecarboxylic acid]",5.35
19,"COc1cccc(CNC(=O)c2cc3c(=O)n(Cc4ccc(OC(C)(C)C(=O)OC(C)(C)C)cc4)c(=O)n(C)c3s2)c1 [Example 95, 2-{4-[6-(3-Methoxy-benzylcarbamoyl)-1-methyl-2,4-dioxo-1,4-dihydro-2H-thieno[2,3-d]pyrimidin-3-ylmethyl]-phenoxy}-2-methyl-propionic acid tert-butyl ester]",103
20,"COc1cccc(CNC(=O)c2cc3c(=O)n(Cc4ccc(OC(C)(C)C(=O)O)cc4)c(=O)n(C)c3s2)c1 [Example 96, 2-{4-[6-(3-Methoxy-benzylcarbamoyl)-1-methyl-2,4-dioxo-1,4-dihydro-2H-thieno[2,3-d]pyrimidin-3-ylmethyl]-phenoxy}-2-methyl-propionic acid]",18.5
21,"Cn1c(=O)n(Cc2ccccc2)c(=O)c2cc(C(=O)OCc3ccccc3)oc21 [Example 97, 3-Benzyl-1-methyl-2,4-dioxo-1,2,3,4-tetrahydro-furo[2,3-d]pyrimidine-6-carboxylic acid benzyl ester]",> 100000
22,"COc1cccc(Cn2c(=O)c3cc(C(=O)OCc4ccccc4)sc3n(C)c2=O)c1 [Example 98, 3-(3-Methoxy-benzyl)-1-methyl-2,4-dioxo-1,2,3,4-tetrahydro-thieno[2,3-d]pyrimidine-6-carboxylic acid benzyl ester]",63
23,"Cn1c(=O)n(Cc2ccc(-c3ccccc3)cc2)c(=O)c2cc(C(=O)OCc3ccccc3)sc21 [Example 100, 3-Biphenyl-4-ylmethyl-1-methyl-2,4-dioxo-1,2,3,4-tetrahydro-thieno[2,3-d]pyrimidine-6-carboxylic acid benzyl ester]",610
24,"Cn1c(=O)n(Cc2ccc(S(C)(=O)=O)cc2)c(=O)c2cc(C(=O)OCc3ccccc3)sc21 [Example 101, 3-(4-Methanesulfonyl-benzyl)-1-methyl-2,4-dioxo-1,2,3,4-tetrahydro-thieno[2,3-d]pyrimidine-6-carboxylic acid benzyl ester]",34
25,"Cn1c(=O)n(Cc2ccc(S(C)(=O)=O)cc2)c(=O)c2cc(C(=O)OCc3ccccc3)sc21 [Example 102, 3-(4-Methanesulfonyl-benzyl)-1-methyl-2,4-dioxo-1,2,3,4-tetrahydro-thieno[2,3-d]pyrimidine-6-carboxylic acid benzyl ester]",34
26,"Cc1ccc(Cn2c(=O)c3cc(C(=O)OCc4ccccc4)sc3n(C)c2=O)cc1 [Example 103, 1-Methyl-3-(4-methyl-benzyl)-2,4-dioxo-1,2,3,4-tetrahydro-thieno[2,3-d]pyrimidine-6-carboxylic acid benzyl ester]",30
27,"Cn1c(=O)n(CCc2ccccc2)c(=O)c2cc(C(=O)OCc3ccccc3)sc21 [Example 104, 1-Methyl-2,4-dioxo-3-phenethyl-1,2,3,4-tetrahydro-thieno[2,3-d]pyrimidine-6-carboxylic acid benzyl ester]",1100
28,"Cn1c(=O)n(Cc2nc(N)nc(Nc3ccccc3)n2)c(=O)c2cc(C(=O)OCc3ccccc3)sc21 [Example 105, 3(4-Amino-6-phenylamino-1,3,5-triazin-2-ylmethyl)-1-methyl-2,4-dioxo-1,2,4-tetrahydro-thieno[2,3-d]pyrimidine-6-carboxylic acid benzyl ester]",520
29,"Cn1c(=O)n(Cc2ccc(C(F)(F)F)cc2)c(=O)c2cc(C(=O)OCc3ccccc3)sc21 [Example 106, 1-Methyl-2,4-dioxo-3-(4-trifluoromethyl-benzyl)-1,2,3,4-tetrahydro-thieno[2,3-d]pyrimidine-6-carboxylic acid benzyl ester]",590
30,"Cn1c(=O)n(CCCCCCC#N)c(=O)c2cc(C(=O)OCc3ccccc3)sc21 [Example 107, 3-(6-Cyano-hexyl)-1-methyl-2,4-dioxo-1,2,3,4-tetrahydro-thieno[2,3-d]pyrimidine-6-carboxylic acid benzyl ester]",2400
